Legend:
[1] = test system: patients with newly diagnosed, previously untreated AML; experiment: Phase 1 dose-escalation study of alvocidib followed by 7+3: response assessments (ELN Guidelines); type: in vivo, human; settings: for Overall CR, n (%): Response Evaluable Population
Method: Methods: Study Population. This was a Phase 1, open-label, multicenter, dose-escalation study of alvocidib followed by cytarabine/daunorubicin (7+3) in patients with AML (NCT03298984). Patients aged 18-65 years with newly diagnosed, previously untreated AML and pathological confirmation of bone marrow (BM) blasts 20% were eligible. Key inclusion criteria included: Eastern Cooperative Oncology Group (ECOG) performance status (PS)≤2, serum creatinine level <1.8 mg/dL, alanine aminotransferase (ALT) and aspartate aminotransferase (AST)<5 times upper limit of normal (ULN), total bilirubin <2.0 mg/dL, and left ventricular ejection fraction (EF) >45%. Patients were excluded if they had previous treatment for AML (with the exception of hydroxyurea), and were diagnosed with acute promyelocytic leukemia (APL-M3) or core-binding factor AML ((CBF-AML: t(8;21); inv(16); t(16;16)). All patients provided written informed consent. This study was conducted as per the Declaration of Helsinki after approval by ethics committee of each participating center.
Treatment Plan: Induction.
Consolidation. Patients who achieved a complete remission (CR) received 2 to 4 cycles of consolidation therapy with high dose cytarabine (HiDAC) 3 gm/m^2 IV every 12 hours on days 1, 3 and 5 upon full hematological recovery (absolute neutrophil count ≥[…] and platelets >[…]). HiDAC was permitted to be dose reduced to 1.5 gm/m^2 IV every 12 hours on days 1, 3 and 5 in those >60 years. Allogeneic stem cell transplantation was permitted after induction per standard of care but was recommended after at least 1 cycle of HiDAC consolidation in those who achieved CR.
Response Assessments. Response assessment was performed by a bone marrow aspirate and biopsy at the time of full hematologic recovery or by day 50 and day 60 of 1 versus 2 induction cycles, respectively. Response to therapy was assessed by standardized ELN Guidelines. In those who achieved CR and received consolidation therapy, a bone marrow aspirate and biopsy was performed after cycle 2 of HiDAC, after completion of consolidation therapy, and at any suspicion of relapse.

[2] = test system: patients with newly diagnosed, previously untreated AML; experiment: Minimal residual disease (MRD) analysis of bone marrow by flow cytometry in the Phase 1 study; type: in vivo, human
Method: Minimal Residual Disease (MRD) Analysis. MRD was assessed in bone marrow samples at the time of response by a uniform central assay (Hematologics, Inc.) in an exploratory cohort, as has been previously described. Samples were first incubated with antibodies for 20 minutes at room temperature. Red blood cells were then lysed at 37° C. using buffered NH4Cl for 5 minutes, followed by centrifugation at 300 g. Cells were subsequently washed with PBS supplemented with 2% FCS and resuspended in 1% paraformaldehyde. Samples were analyzed on a FACSCalibur™ flow cytometer (Becton Dickinson Biosciences). 200,000 events were analyzed for each sample. Data analysis was performed with WinList™ software (Verity Software House). Two independent reviewers viewed each sample to arrive at a consensus on the data.

[3] = test system: patients with newly diagnosed, previously untreated AML; experiment: Kaplan-Meier time-to-event analyses and clinical outcomes of the Phase 1 study; type: in vivo, human
Source text: Statistical Analysis. […] Intra-patient dose escalation was not permitted. […] Database lock was on Apr. 30, 2020.

[4] = test system: patients with newly diagnosed, previously untreated AML
Method: Treatment Plan: Induction. Alvocidib was dose-escalated starting at dose level 1: 20 mg/m^2 30-minute IV bolus followed by 30 mg/m^2 IV infusion over 4 hours on Days 1-3 (FIG. 1). Daunorubicin 60 mg/m^2 IV bolus over 15 minutes was initiated on days 5-7, and cytarabine 100 mg/m^2/day IV continuous 24-hour infusion was administered on Days 5-11. A bone marrow aspirate and biopsy was performed on day 14 (+/−3 days) and patients with residual leukemia (>5% bone marrow blasts and >10% cellularity) were recommended to receive a second induction cycle with alvocidib on days 1-3 (same dose level as induction) followed by daunorubicin 45 mg/m^2/day IV over 15 minutes on days 5 and 6 and cytarabine 100 mg/m^2/day IV continuous infusion over days 5-9 (“5+2”).
Statistical Analysis. Alvocidib dose was escalated using a 3+3 design (FIG. 1). Successive cohorts of patients (3-6 per cohort) were treated with escalated doses until the maximal tolerated dose (MTD) was established. Intra-patient dose escalation was not permitted. Descriptive analysis was performed for the safety and efficacy endpoints. MTD for alvocidib was estimated by the highest alvocidib dose for which the incidence of DLT during Cycle 1 was less than 33% in combination with 7+3. Kaplan-Meier time-to-event analyses were performed on overall survival (OS), relapse-free survival and duration of remission. […]

MDS blasts = experiment: MCL-1 dependency assay of MDS blasts after azacitidine pre-treatment; type: cell-based, human; settings: MCL-1 dependency cut-off of 40%
Method: CD13, CD33, CD34, CD45, CD3 and CD20 were used as markers to identify MDS blasts, and to perform MCL-1 dependency analyses. MDS blasts were positive for CD13, CD33 and CD34, dim for CD45 and negative for CD3 and CD20.
On day 1 of the MCL-1 dependency assay, 5×10^4-1×10^5 HS-5 feeder cells were plated into a 6-well plate, and allowed to attached overnight. HS-5 feeder cells improve viability of frozen MDS bone marrow mononuclear cells (BMMCs) after thawing. On day 2 of the assay, MDS BMMCs were thawed, and divided into three treatment groups corresponding to treatment with DMSO, treatment with 1 μM azacitidine or treatment with 2.5 μM azacitidine. On day 4, after a 48-hour treatment period, MCL-1 dependency of MDS blasts, lymphocytes and monocytes were separately assessed.

[5] = Response Evaluable Population (N = 31), alvocidib followed by 7+3

SMILES: CN1CC[C@H](c2c(O)cc(O)c3c(=O)cc(-c4ccccc4Cl)oc23)[C@H](O)C1 [alvocidib, 2-(2-chlorophenyl)-5,7-dihydroxy-8-[(3S,4R)-3-hydroxy-1-methylpiperidin-4-yl]chromen-4-one]
- patients achieving CR after re-induction therapy ([1]; 3 patients re-induced with alvocidib and 5+2): None
- CR rate ([1]; AML with mutated chromatin, RNA-splicing genes, or both (9/10)): 90%
- patients achieving CR ([1]; MRD exploratory cohort of 12 patients at recommended phase 2 dose): 75%
- CR, n (%) [1, 5]: 22 (71.0%) n (%)
- CRi (%) [1, 5]: 0%
- Overall CR/CRi, n (%) [1, 5]: 22 (71.0%) n (%)
- Overall Response Rate (CR + CRi + PR) [1, 5]: 24 (77.4%) n (%)
- PR, n (%) [1, 5]: 2 (6.5%) n (%)
- Overall CR, n (%) ([1]; ELN-risk Adverse (n = 15)): 9 (60.0%) n (%)
- Overall CR, n (%) ([1]; ELN-risk Favorable (n = 9)): 8 (88.9%) n (%)
- Overall CR, n (%) ([1]; ELN-risk Intermediate (n = 7)): 5 (71.4%) n (%)
- Overall CR, n (%) ([1]; SWOG cytogenetics risk Favorable (n = 0)): 0 (0.0%) n (%)
- Overall CR, n (%) ([1]; SWOG cytogenetics risk Intermediate (n = 19)): 15 (78.9%) n (%)
- Overall CR, n (%) ([1]; SWOG cytogenetics risk Unfavorable (n = 12)): 7 (58.3%) n (%)
- Overall CR, n (%) ([1]; SWOG cytogenetics risk Unknown (n = 0)): 0 (0.0%) n (%)
- Overall CR, n (%) ([1]; subgroup AML with MRC (n = 11)): 6 (54.5%) n (%)
- Overall CR, n (%) ([1]; subgroup Age <60 years (n = 21)): 16 (76.2%) n (%)
- Overall CR, n (%) ([1]; subgroup Age ≥60 years (n = 10)): 6 (60.0%) n (%)
- Overall CR, n (%) ([1]; subgroup At MTD (n = 23)): 15 (65.2%) n (%)
- Overall CR, n (%) ([1]; subgroup Secondary AML (n = 5)): 3 (60.0%) n (%)
- patients with no evidence of residual leukemia on day 14 assessment ([1]; all enrolled patients): 91%
- CR rate ([1]; all enrolled patients (n=32)): 69%
- overall response rate (ORR: CR+partial remission (PR)) ([1]; all enrolled patients (n=32)): 75%
- Overall CR rate ([1]; all enrolled, ELN adverse-risk (9 of 16)): 56%
- Overall CR rate ([1]; all enrolled, ELN favorable-risk (8 of 9)): 89%
- Overall CR rate ([1]; all enrolled, ELN intermediate-risk (5 of 7)): 71%
- CR rate ([1]; dose level 1 (3 of 3), all ELN favorable-risk): 100%
- CR rate ([1]; genomic signature specific for secondary AML (ASXL1, BCOR, EZH2, SF3B1, SRSF2, STAG2, U2AF1, or ZRSR2) (11/12)): 92%
- Overall CR rate ([1]; patients with ASXL1 mutations (5/6)): 83%
- CR rate ([1]; patients with MCL-1 scores greater than 30% (10/12)): 83%
- CR rate ([1]; patients with MCL-1 scores less than 30% (10/15)): 67%
- CR rate ([1]; patients with NPM1 mutations (8/10)): 80%
- Overall CR rate ([1]; patients with RUNX1 mutations (4/5)): 80%
- patients achieving CR ([1]; patients with a TP53 mutation (1/3)): 33%
- patients achieving CR ([1]; recommended phase 2 dose level (15/23)): 65%
- CR rate ([1]; response-evaluable patients): 71%
- ORR ([1]; response-evaluable patients): 77%
- MRD-negative among patients who achieved CR ([2]; 22 CR patients, standardized flow cytometry and/or institutional standard assessment): 50%
- MRD-negative among patients who achieved CR ([2]; ELN adverse-risk disease (4/9)): 44%
- MRD-negative CR, overall ([2]; MRD exploratory cohort, 8 of 12 patients): 67%
- MRD-negative among CR patients ([2]; MRD exploratory cohort, centralized flow cytometry (8/9)): 89%
- MRD-negative CR ([2]; MRD exploratory cohort, ELN adverse-risk patients (3 out of 4)): 75%
- CR with evidence of MRD ([2]; MRD exploratory cohort, one patient with adverse-risk disease): 11%
- median duration of CR ([3]; 7 relapsed CR patients, range: 1.4-13.6 months): 8.6 months
- Median EFS ([3]; 32 patients, 95% CI: 2.0, NA): 10.0 months
- Landmark 1-year OS ([3]; 32 patients, 95% CI: 41.9, 77.4%): 62.4%
- median OS ([3]; 32 patients, median follow-up 9.2 months): not reached
- Landmark 2-year EFS ([3]; 95% CI: 15.4, 53.8%): 34.1%
- Landmark 1-year EFS ([3]; 95% CI: 21.9, 59.1%): 40.9%
- Landmark 1-year RFS ([3]; 95% CI: 31.7, 79.1%): 59.5%
- relapsed to date ([3]; of the 22 CR patients): 32%
- remain in CR ([3]; patients who achieved CR without MRD): 82%
- relapsed ([3]; patients who achieved CR without evidence of MRD): 18%
- median RFS ([3]; time from CR/CRi up to relapse or death): not reached
- MTD (maximum tolerated dose) of alvocidib ([4]; IV bolus/IV infusion on Days 1-3, in combination with 7+3): (30/60 mg/m^2)
- safety and feasibility ([4]; in vivo): safe, feasible

SMILES: Nc1ncn([C@@H]2O[C@H](CO)[C@@H](O)[C@H]2O)c(=O)n1 [azacitidine]
- patient samples with an increase in MCL-1 dependency (MDS blasts; 1 μM or 2.5 μM azacitidine, 48-hour treatment): 10/12
- effect on MCL-1 dependency status of blasts (MDS blasts; patient sample MDS1060): rendered MCL-1-independent blasts MCL-1 dependent

Reference: patent publication US20220257581A1, “Treatment of Cancer” (Sumitomo Dainippon Pharma Oncology, Inc., priority 2019, published 2022)
